Read-outs that look alike come from different tables or passages of the source.
Experiments:
[1] = Metabolic stability using human liver microsomes; format: in vitro ADME; conditions: 0.25 μM test compound, 2 mM NADPH, 37° C.
Experimental: Deuterated test compounds were supplied by Concert Pharmaceuticals.
A 10 μL aliquot of the 12.5 μM test compound was added to the microsomes and the mixture was pre-warmed for 10 minutes.
Data analysis was performed using Microsoft Excel Software.

[2] = Single Ascending Dose (SAD) study, pharmacokinetics in healthy volunteers; format: in vivo, human; conditions: fasted; for AUC(0-inf) / Cmax / half-life / AUC(0-t) / concentration at 24 h / Vd/F / Tmax: human, in vivo, oral; for AUC(0-inf) / Cmax / half-life / AUC(0-t) / concentration at 24 h / Vd/F / CL/F: arithmetic mean; for AUC(0-t): read-out: AUC0-24hr; for concentration at 24 h: read-out: C24hr; for Vd/F: read-out: Vz/F; for Tmax: median
[3] = Multiple Ascending Dose (MAD) study, pharmacokinetics in healthy volunteers; format: in vivo, human; conditions: for Cmax / half-life / AUC(0-t) / concentration at 12 h / Tmax / concentration at 24 h: human, in vivo, oral; for Cmax / half-life / AUC(0-t) / concentration at 12 h / concentration at 24 h: arithmetic mean; for concentration at 12 h: read-out: C12hr; for Tmax: median; for concentration at 24 h: read-out: C24hr
[4] = Combined SAD and MAD (Phase 1) studies, safety and tolerability; format: in vivo, human
Experimental: In the combined SAD and MAD studies, a total of 77 subjects were dosed (60 received CTP-543; 17 received placebo).

[5] = system: IL-6-stimulated phosphorylated STAT3 (pSTAT3); test: Pharmacodynamic analysis in MAD study: IL-6-stimulated pSTAT3; format: in vivo, human; conditions: all treatment groups
Experimental: (§1) Pharmacodynamic analyses were also performed during the MAD study of the Phase 1 trial to assess the inhibition of IL-6- and IFN-γ-mediated JAK/STAT signaling.

[6] = system: IFN-γ-mediated STAT1 signaling; test: Pharmacodynamic analysis in MAD study: IFN-γ-mediated STAT1 signaling; format: in vivo, human; conditions: disease-relevant immune cell types, all doses evaluated
Experimental: as §1

[7] = single dose 8 mg as phosphate salt, n = 6
[8] = single dose 16 mg as phosphate salt, n = 6
[9] = single dose 32 mg as phosphate salt, n = 6
[10] = single dose 48 mg as phosphate salt, n = 5

t1/2 longer than the t1/2 of non-deuterated ruxolitinib [1]: about 75%
AUC(0-inf) [2, 7]: 589 ng·h/mL
Cmax [2, 7]: 118 ng/mL
half-life [2, 7]: 3.14 h
AUC(0-t) [2, 7]: 584 ng·h/mL
concentration at 24 h [2, 7]: 1.02 ng/mL
Vd/F [2, 7]: 64.1 L
Tmax [2, 7]: 1.25 h
AUC(0-inf) [2, 8]: 1350 ng·h/mL
Cmax [2, 8]: 260 ng/mL
half-life [2, 8]: 3.32 h
AUC(0-t) [2, 8]: 1330 ng·h/mL
concentration at 24 h [2, 8]: 2.77 ng/mL
Vd/F [2, 8]: 61 L
AUC(0-inf) [2, 9]: 2460 ng·h/mL
Cmax [2, 9]: 535 ng/mL
half-life [2, 9]: 3.52 h
AUC(0-t) [2, 9]: 2420 ng·h/mL
concentration at 24 h [2, 9]: 5.6 ng/mL
Vd/F [2, 9]: 68.4 L
Tmax [2, 9]: 1.25 h
AUC(0-inf) [2, 10]: 4160 ng·h/mL
Cmax [2, 10]: 853 ng/mL
half-life [2, 10]: 3.61 h
AUC(0-t) [2, 10]: 4100 ng·h/mL
concentration at 24 h [2, 10]: 9.26 ng/mL
Vd/F [2, 10]: 63.2 L
CL/F [2, 7]: 14.92 L/h
CL/F [2, 8]: 13.87 L/h
CL/F [2, 9]: 13.88 L/h
CL/F [2, 10]: 12.75 L/h
average systemic exposure versus published average reported exposure of 20 mg BID ruxolitinib ([3]; 16 mg BID of Compound (I)): comparable
Cmax ([3]; 8 mg, 8 mg BID, Day 1, n = 4): 160 ng/mL
half-life ([3]; 8 mg, 8 mg BID, Day 1, n = 4): 3.77 h
AUC(0-t) ([3]; 8 mg, 8 mg BID, Day 1, n = 4, read-out: AUCtau/AUC0-12hr): 703 ng·h/mL
concentration at 12 h ([3]; 8 mg, 8 mg BID, Day 1, n = 4): 13.7 ng/mL
Tmax ([3]; 8 mg, 8 mg BID, Day 1, n = 4): 1 h
Cmax ([3]; 8 mg, 8 mg BID, Day 7, n = 4): 183 ng/mL
half-life ([3]; 8 mg, 8 mg BID, Day 7, n = 4): 4.2 h
AUC(0-t) ([3]; 8 mg, 8 mg BID, Day 7, n = 4, read-out: AUCtau/AUC0-12hr): 844 ng·h/mL
concentration at 12 h ([3]; 8 mg, 8 mg BID, Day 7, n = 4): 13.2 ng/mL
Cmax ([3]; 8 mg, 8 mg QD, Day 1, n = 7): 156 ng/mL
half-life ([3]; 8 mg, 8 mg QD, Day 1, n = 7): 3.23 h
AUC(0-t) ([3]; 8 mg, 8 mg QD, Day 1, n = 7, read-out: AUCtau/AUC0-24hr): 704 ng·h/mL
concentration at 24 h ([3]; 8 mg, 8 mg QD, Day 1, n = 7): 0.86 ng/mL
Tmax ([3]; 8 mg, 8 mg QD, Day 1, n = 7): 1 h
Cmax ([3]; 8 mg, 8 mg QD, Day 7, n = 7): 151 ng/mL
half-life ([3]; 8 mg, 8 mg QD, Day 7, n = 7): 3.51 h
AUC(0-t) ([3]; 8 mg, 8 mg QD, Day 7, n = 7, read-out: AUCtau/AUC0-24hr): 668 ng·h/mL
concentration at 24 h ([3]; 8 mg, 8 mg QD, Day 7, n = 7): 1.01 ng/mL
Tmax ([3]; 8 mg, 8 mg QD, Day 7, n = 7): 1 h
Cmax ([3]; 16 mg, 16 mg BID, Day 1, n = 8): 290 ng/mL
half-life ([3]; 16 mg, 16 mg BID, Day 1, n = 8): 2.89 h
AUC(0-t) ([3]; 16 mg, 16 mg BID, Day 1, n = 8, read-out: AUCtau/AUC0-12hr): 1060 ng·h/mL
concentration at 12 h ([3]; 16 mg, 16 mg BID, Day 1, n = 8): 15.3 ng/mL
Tmax ([3]; 16 mg, 16 mg BID, Day 1, n = 8): 1 h
Cmax ([3]; 16 mg, 16 mg BID, Day 7, n = 8): 288 ng/mL
half-life ([3]; 16 mg, 16 mg BID, Day 7, n = 8): 3.53 h
AUC(0-t) ([3]; 16 mg, 16 mg BID, Day 7, n = 8, read-out: AUCtau/AUC0-12hr): 1130 ng·h/mL
concentration at 12 h ([3]; 16 mg, 16 mg BID, Day 7, n = 8): 16.5 ng/mL
Tmax ([3]; 16 mg, 16 mg BID, Day 7, n = 8): 0.75 h
Cmax ([3]; 24 mg, 24 mg QD, Day 1, n = 8): 384 ng/mL
half-life ([3]; 24 mg, 24 mg QD, Day 1, n = 8): 3.14 h
AUC(0-t) ([3]; 24 mg, 24 mg QD, Day 1, n = 8, read-out: AUCtau/AUC0-24hr): 1670 ng·h/mL
concentration at 24 h ([3]; 24 mg, 24 mg QD, Day 1, n = 8): 2.48 ng/mL
Tmax ([3]; 24 mg, 24 mg QD, Day 1, n = 8): 0.5 h
Cmax ([3]; 24 mg, 24 mg QD, Day 7, n = 8): 310 ng/mL
half-life ([3]; 24 mg, 24 mg QD, Day 7, n = 8): 3.5 h
AUC(0-t) ([3]; 24 mg, 24 mg QD, Day 7, n = 8, read-out: AUCtau/AUC0-24hr): 1530 ng·h/mL
concentration at 24 h ([3]; 24 mg, 24 mg QD, Day 7, n = 8): 3.39 ng/mL
Tmax ([3]; 24 mg, 24 mg QD, Day 7, n = 8): 1 h
Cmax ([3]; 32 mg, 32 mg QD, Day 1, n = 8): 509 ng/mL
half-life ([3]; 32 mg, 32 mg QD, Day 1, n = 8): 2.86 h
AUC(0-t) ([3]; 32 mg, 32 mg QD, Day 1, n = 8, read-out: AUCtau/AUC0-24hr): 2220 ng·h/mL
concentration at 24 h ([3]; 32 mg, 32 mg QD, Day 1, n = 8): 2.95 ng/mL
Tmax ([3]; 32 mg, 32 mg QD, Day 1, n = 8): 0.75 h
Cmax ([3]; 32 mg, 32 mg QD, Day 7, n = 8): 492 ng/mL
AUC(0-t) ([3]; 32 mg, 32 mg QD, Day 7, n = 8, read-out: AUCtau/AUC0-24hr): 2100 ng·h/mL
concentration at 24 h ([3]; 32 mg, 32 mg QD, Day 7, n = 8): 5.12 ng/mL
Tmax ([3]; 32 mg, 32 mg QD, Day 7, n = 8): 0.75 h
accumulation with repeated dosing ([3]; repeated dosing, seven consecutive days): did not accumulate
SMILES: [2H]C1([2H])C([C@@H](CC#N)n2cc(-c3ncnc4[nH]ccc34)cn2)C([2H])([2H])C([2H])([2H])C1([2H])[2H] [Compound (I), (R)-3-(4-(7H-pyrrolo[2,3-d]pyrimidin-4-yl)-1H-pyrazol-1-yl)-3-(cyclopentyl-2,2,3,3,4,4,5,5-d8)propanenitrile]
tolerability ([4]; Phase 1 study): generally well tolerated
cases of mild neutropenia ([4]; combined SAD and MAD studies): resolved or trended toward recovery after dosing completion
most common adverse event reported ([4]; combined SAD and MAD studies): headache
severe neutropenia (Grade 3 or 4) ([4]; combined SAD and MAD studies): not observed
withdrawal or dose modification related to CTP-543 ([4]; combined SAD and MAD studies): No withdrawal or dose modification
serious adverse events ([4]; combined SAD and MAD studies, 60 subjects received CTP-543): No serious adverse events were reported
absorption ([4]; combined SAD and MAD studies, oral): rapidly absorbed
IL-6-stimulated phosphorylated STAT3 (pSTAT3) ([5]; MAD study): dose-related reduction
pSTAT3 inhibition at 24 hours post-dose ([5]; 24 hours post-dose): returned to approximate baseline values
IFN-γ-mediated STAT1 signaling [6]: significantly inhibited

Reference: patent US12076323B2, “Treatment of hair loss disorders with deuterated JAK inhibitors” (Sun Pharmaceutical Industries, Inc., priority 2016, dated 2024)
